In US20040077599A1, “Novel spiro[2.4]heptane amino carboxy compounds and derivatives thereof” (priority 2000, published 2004):
Where two headings read alike, the source gives them in different places.

Experiments:
[1] = tested on: Group I metabotropic glutamate receptors (mGluRs); experiment: Phosphatidylinositol assay (inositol phosphate accumulation in neonatal tissue slices); type: cell-based, Sprague Dawley rat; conditions: neonatal rat slices, 45 minutes; for Group I Agonist: increase in intracellular free inositol phosphate accumulation; for Group I Antagonist: inhibits inositol phosphate accumulation induced by ACPD; for EC50: antagonist mode vs ACPD
Procedure: Phosphatidylinositol (PI) hydrolysis can be measured as described below: Briefly, cross-chopped slices are prepared from neonatal Sprague Dawley rat tissue (age: p7-p14). The slices are pre-labelled with [^3H] myo-inositol. Following pre-labelling, the slices are incubated with the test drugs and standard (known Group I agonists i.e. ACPD) for a period of 45 minutes. The incubation is terminated by the addition of chloroform/methanol/HCl (100:200:2). The resulting mixture is separated into two phases by the addition of chloroform and distilled water. The aqueous fraction is applied to ion exchange columns, and inositol phosphates are eluted using 800 mM Ammonium Formate/100 mM Formic Acid. The eluent is then analyzed using liquid scintillation counting. The amount of inositol phosphate accumulation is expressed as a percentage of that induced by ACPD.
Group I metabotropic glutamate receptors (mGluRs) are positively coupled on inositol phosphate metabolism. Agonists at these receptors lead to an increase in intracellular free inositol phosphates, while antagonists inhibit the increase in intracellular free inositol phosphate induced by standard agonists (i.e. ACPD).
Cross-chopped slices were prepared from neonatal Sprague Dawley rat tissue (age: p7-p14). The slices were pre-labelled with [^3H] myo-inositol. Following pre-labelling, the slices were incubated with the test compounds and standard (known Group I agonists i.e. ACPD) for a period of 45 minutes. The incubation was terminated by the addition of chloroform/methanol/HCl (100:200:2). The resulting mixture was separated into two phases by the addition of chloroform and distilled water. The aqueous fraction was applied to ion exchange columns, and inositol phosphates were eluted using 800 mM Ammonium Formate/100 mM Formic Acid. The eluent was then analyzed using liquid scintillation counting. The amount of inositol phosphate accumulation was expressed as a percentage of that induced by ACPD.
If the drugs cause an increase in intracellular free inositol phosphate accumulation, they are considered to be Group I agonists. […]

[2] = tested on: Group II/III metabotropic glutamate receptors (mGluRs); experiment: Cyclic AMP assay (forskolin-induced cyclic AMP accumulation in cortical slices); type: cell-based, Sprague Dawley rat; conditions: rat cortical slices; for Group II/III Agonist: inhibits forskolin-induced cyclic AMP accumulation; for Group II/III Antagonist: inhibits the glutamate-caused decrease in forskolin-induced cyclic AMP accumulation
Procedure: The assay of cyclic AMP formation can be performed as described previously (Tovey et al., Clinica Chimica Acta, 56, 221-234, 1974). The assay can be modelled on the cyclic AMP assay kit available from Amersham, which in turn, is based on the assay created by Tovey et al. Briefly, samples are prepared from Sprague Dawley rat (225-250 g) cortical slices. Slices are incubated with the drug, and then challenged with forskolin to induce cyclic AMP release. Following termination of the reaction by boiling, the slices are homogenized and centrifuged. Samples of supernatant are then incubated for 2-3 hours with a known quantity of [^3H]cAMP and a binding protein. When the incubation is complete, the bound cyclic AMP is separated from the free cyclic AMP by centrifugation with charcoal. The resulting supernatant (containing free cyclic AMP) is then analyzed by liquid scintillation counting. The amount of unbound cyclic AMP can be calculated from a standard curve previously determined with various samples of free cyclic AMP.
Group II/III metabotropic glutamate receptors (mGluRs) are negatively coupled to adenylate cyclase, and agonists of these receptors lead to a decrease in intracellular cyclic AMP accumulation.
The assay has been modeled on the cyclic AMP assay kit available from Amersham. This kit, in turn, is based on the assay created by Tovey et al. (1974). Briefly, the samples were prepared from Sprague Dawley rat (225-250 g) cortical slices. Slices were incubated with the test compound (drug), and then challenged with forskolin to induce cyclic AMP release. Following termination of the reaction by boiling, the slices were homogenized and centrifuged. Samples of supernatant were then incubated for 2-3 hours with a known quantity of [^3H]cAMP and a binding protein. When the incubation was complete, the bound cyclic AMP was separated from the free cyclic AMP by centrifugation with charcoal. The resulting supernatant (containing free cyclic AMP) was then analyzed by liquid scintillation counting. The amount of unbound cyclic AMP was calculated from a standard curve previously determined with various samples of free cyclic AMP.
If the drugs tested inhibit forskolin-induced cyclic AMP accumulation, they are considered to be Group II/III agonists. Conversely, if they inhibit the decrease in forskolin-induced cyclic AMP accumulation caused by glutamate, they are considered to be Group II/III antagonists.

[3] = antagonist mode vs glutamate, read-out: EC50 (M), Group II/III Antagonist
[4] = agonist mode, read-out: EC50 (M), Group II/III Agonist

| Group I Agonist [1] | Group I Antagonist [1] | EC50 [2, 3] [M] | Group II/III Agonist [2] | Group II/III Antagonist [2] | EC50 [1] [nM] | EC50 [2, 4] [M] | SMILES |
| --- | --- | --- | --- | --- | --- | --- | --- |
| No | Yes | – | Yes | Yes | 88 | 1.6e-06 | NC(C(=O)O)C1CCCC12CC2C(=O)O (centres unmarked) [Compound 26, Spiro[4,2]heptane-1-carboxy-4-glycine] |
| No | Yes | – | Yes | Yes | 0.84 | 8.7e-11 | NC(C(=O)O)C1CCCC12CC2C(=O)O (centres unmarked) [Compound 27, Spiro[4,2]heptane-1-carboxy-4-glycine] |
| No | Yes | 1.4e-09 | No | Yes | 220 | – | N[C@@]1(C(=O)O)CCCC12CC2C(=O)O (some centres unmarked) [Compound 7, Spiro[2.4]heptane-4-amino-1,4-dicarboxylic acid] |
| No | Yes | 1e-06 | No | yes | 94 | – | N[C@]1(C(=O)O)CCCC12CC2C(=O)O (some centres unmarked) [Compound 8, Spiro[2.4]heptane-4-amino-1,4-dicarboxylic acid] |

| SMILES | Group I Agonist [1] | Group I Antagonist [1] | EC50 [2, 3] [M] | Group II/III Agonist [2] | Group II/III Antagonist [2] | EC50 [1] [nM] | EC50 [2, 4] [M] |
| --- | --- | --- | --- | --- | --- | --- | --- |
| NC1(C(=O)O)CC2(CC2C(=O)O)c2ccccc21 (centres unmarked) [Compound 22, 1-Amino-1-carboxyindan-3-spiro-cyclopropanecarboxylic Acid] | No | No | 8.7e-10 | No | No | – | – |
| NC1(C(=O)O)CCCC12C(C(=O)O)C2c1ccccc1 (centres unmarked) [Compound 16, Spiro[2.4]heptane4-amino-2-phenyl-1,4-dicarboxylic Acid] | No | Yes | – | Yes | No | 100 | 1e-09 |
